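Results reflect a 48-hour exposure of cells in 96-well plates to compound at five concentrations. GI50 marks 50% less growth. The concentration for full growth arrest is given as TGI.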

The values below come from PubChem BioAssay (NCI).

Assay in all cases: growth of human tumour cells (NCI), 48 h
In test [1] the test system is MDA-N.
Test [2] relates to DLD-1 colon.
Test [3] has as its system HOP-18 NSCLC.
Test [4] concerns XF 498 CNS.
Test [5] relates to DMS 273 small cell lung.
For test [6], the system named is DMS 114 small cell lung.
Test [7] has as its system LXFL 529 NSCLC.
Test [8] deals with M19-MEL melanoma.
Test [9] concerns RXF-631 renal.

Regarding `CCOC(=O)C(=O)C(/C(=N/N(C)C)C(=O)Nc1ccc(C)cc1C)c1nc2ccccc2[nH]c1=O` (stereo not drawn), in [1], the TGI was over 100 µM.

`O=C(O)CNC(=O)C1NC(C(F)(F)F)(C(F)(F)F)OC1(C(F)(F)F)C(F)(F)F` (stereo not drawn): the TGI in [1] is over 100 µM.

In test [1], `CC1(C)OC2COC(c3[nH]nc4c(=O)[nH]c(=O)[nH]c34)C2O1` (stereo not drawn) came in with a TGI of over 100 µM.

Take `CN[C@H]1CC[C@]23C[C@]24CC[C@]2(C)[C@@H]([C@H](C)N(C)C)CC[C@@]2(C)[C@@H]4CC[C@H]3C1(C)C`: in [1], the TGI amounted to 29.2 µM.

On to `CCN(CC)CCC(=O)N1C/C(=C/c2ccccc2)C(=O)/C(=C\c2ccccc2)C1`, for which the TGI in test [2] came to 2.82 µM; in [1], 2.45 µM; in [3] it was 9.19 µM; in test [4], 7.57 µM; in test [5] it was 3.15 µM; in test [6], 4.54 µM. For the same molecule, the TGI stood at 3.27 µM in [7] and 3.68 µM in [8].

As to `CC(C)Cc1ccc(C(C)/C=C2\CCC(CN3CCCCC3)C2=O)cc1` (stereo not drawn), the TGI came out at 5.13 µM in test [2]; 12.8 µM in [1]; 30.6 µM in test [3]; 16 µM in [4]; 7.2 µM in test [5]; 4.78 µM in test [6]. Moreover, the TGI in test [7] is 3.55 µM; in test [8] it was 6.08 µM.

The molecule `NC(N)=NC(N)=Nc1ccc(S(N)(=O)=O)cc1` registered a TGI in [1] of over 100 µM.

`C[C@H](C(O)CC(=O)C(C)(C)O)[C@H]1CC[C@@]2(C)[C@@H]3CC[C@H]4C(C)(C)[C@@H](OC5OC(COC6OC(CO)C(O)C(O)C6O)C(O)C(O)C5O)CC[C@]4(C)C3=CC[C@]12C` (stereo partly drawn) came in with a TGI in test [1] of over 100 µM.

For `CC(C)=CCC/C(C)=C/CC/C(C)=C/C1CCC(=O)C1(C)C` (stereo not drawn), the TGI in test [2] was 32.6 µM; in test [3] it was 63.1 µM; in test [4], 32.3 µM; in test [9], over 100 µM; in test [6] it was 28.2 µM; in [7], 31.1 µM. In [8], this molecule gave a TGI of 38 µM.

As to `Cc1nc(-n2nc(-c3ccccc3)cc2-c2ccccc2)sc1C(=O)/C=C/c1ccc(Cl)cc1`, the TGI in test [2] is 26.8 µM; in [3] it was 29.6 µM; in test [5] it was over 100 µM; in test [6], 28.3 µM; in test [8], 39.6 µM.

In the case of `[N-]=[N+]=NC1C2CC3CC(C2)CC1C3` (stereo not drawn), the TGI in test [3], in [5], in [9], in test [6], in test [7] and in test [8] was over 100 µM each time.

Consider `CCN(CC)/[N+]([O-])=N/OCC(C)O` (stereo not drawn), for which the TGI in test [4], in test [5], in test [9], in test [6] and in test [8] was over 100 µM each time.

Turning to `N.N.NCCCCCN.O=C([O-])CC(=O)[O-].O=C([O-])CC(=O)[O-].[Pt+4].[Pt+4]`, the GI50 in [2], in [3] and in test [7] was over 100 µM throughout. Further, the TGI in [2], in test [3] and in [7] was over 100 µM in each case.

On to `CCOc1ncnc2ccc(Cl)c(I)c12`, for which the TGI in test [2], in test [4], in test [5], in [6], in [7] and in [8] was over 100 µM in each case.

Regarding `S=C1SCN(C2CCCCCCCCCCC2)CN1C1CCCCCCCCCCC1`, the TGI in [1] is over 100 µM.

In the case of `COC(=O)C1=C(O)c2cc3c(cc2[C@H](c2cc(OC)c(OC)c(OC)c2)C1)OCO3`, the TGI in test [2], in test [3], in [4], in test [5], in test [9] and in test [6] was over 100 µM each time. The TGI is over 100 µM in test [7] and 10.1 µM in test [8].

Regarding `COc1cc(/C=C2\Cc3ccccc3C2=O)cc(OC)c1OC`, the TGI in test [2], in test [3], in test [4], in test [5], in [9] and in [6] was over 100 µM throughout. Further, the TGI in test [7] and in test [8] was over 100 µM in each case.

As for `CC(=O)Oc1cc(Cl)c(OC(C)=O)c2c(OC(C)=O)c(C)c(O[Si](C)(C)C(C)(C)C)cc12`, the TGI in test [2] turned out to be 3.92 µM; in test [4] it was 32.8 µM; in test [5], 20 µM; in test [6], 15.1 µM.

In the case of `CN=C(N)NC`, the TGI in test [2], in test [3], in test [4], in test [5], in test [6] and in test [7] was over 100 µM throughout. This molecule also displayed a TGI in test [8] of over 100 µM.

With `CCCCCCC(O)C(O)CCC(O)C1CCC(CCCCC(O)CC2=CC(C)OC2=O)O1` (stereo not drawn), in test [1], the GI50 is 12.3 µM and the TGI was determined as 29.1 µM.

For `O=C(COC(=O)c1cccc2c(=O)c3ccccc3[nH]c12)Nc1ccc(S(=O)(=O)Nc2ncccn2)cc1`, the TGI in [2], in test [4], in test [5], in test [9], in test [6] and in test [7] was over 100 µM throughout. The TGI in [8] is over 100 µM.

`Nc1nc(CC2(O)CCCCC2)cc(-c2ccccc2)n1`: the TGI was over 100 µM in test [2]; over 90 µM in test [3]; over 66 µM in [5]; over 100 µM in test [9]; over 70.6 µM in test [6]; over 100 µM in test [7]. Moreover, the TGI in [8] is over 72.8 µM.

Turning to `COc1ccc(/C=C2\CCc3ccccc3C2=O)cc1OC`, the TGI in [2] is 56.4 µM; in [3], over 100 µM; in test [4], 56.5 µM; in test [6] it was 47.1 µM; in test [7], over 100 µM; in test [8], over 100 µM.

The molecule `CNC(=S)N(C1CCCCC1)C1CCCCC1` had a TGI in [1] of over 100 µM.
